Measurements taken from the supplement of paper PMC11451515.

Test system: NOMO1
Experiment: cell viability relative to DMSO control; higher = less cytotoxic
Settings: 48 h
Outline: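 Viability was expressed as a per-plate percentage of DMSO wells, with cell-free wells as background. Leukemia cells (NOMO1 or SEM at 500 cells/well, P12-Ichikawa at 1000 cells/well) were adapted for at least four passages in each medium and seeded in 1536-well plates (5 μl). Library compounds in DMSO were pin-dosed over an 11-point threefold series from 47 μM to 0.79 nM, and CellTiter-Glo One luminescence was read after 48 h at 37°C.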

[1] = HPLM + 10% dialyzed FBS, 0.000781 µM
[2] = HPLM + 10% dialyzed FBS, 0.00234 µM
[3] = HPLM + 10% dialyzed FBS, 0.00702 µM
[4] = HPLM + 10% dialyzed FBS, 0.0211 µM
[5] = HPLM + 10% dialyzed FBS, 0.0632 µM
[6] = HPLM + 10% dialyzed FBS, 0.19 µM
[7] = HPLM + 10% dialyzed FBS, 0.569 µM
[8] = HPLM + 10% dialyzed FBS, 1.71 µM
[9] = HPLM + 10% dialyzed FBS, 5.12 µM
[10] = HPLM + 10% dialyzed FBS, 15.4 µM
[11] = HPLM + 10% dialyzed FBS, 46.1 µM
[12] = RPMI 5 mM glucose + 10% FBS, 0.000781 µM
[13] = RPMI 5 mM glucose + 10% FBS, 0.00234 µM
[14] = RPMI 5 mM glucose + 10% FBS, 0.00702 µM
[15] = RPMI 5 mM glucose + 10% FBS, 0.0211 µM
[16] = RPMI 5 mM glucose + 10% FBS, 0.0632 µM
[17] = RPMI 5 mM glucose + 10% FBS, 0.19 µM
[18] = RPMI 5 mM glucose + 10% FBS, 0.569 µM
[19] = RPMI 5 mM glucose + 10% FBS, 1.71 µM
[20] = RPMI 5 mM glucose + 10% FBS, 5.12 µM
[21] = RPMI 5 mM glucose + 10% FBS, 15.4 µM
[22] = RPMI 5 mM glucose + 10% FBS, 46.1 µM
[23] = RPMI 5 mM glucose + 10% dialyzed FBS, 0.000781 µM
[24] = RPMI 5 mM glucose + 10% dialyzed FBS, 0.00234 µM
[25] = RPMI 5 mM glucose + 10% dialyzed FBS, 0.00702 µM
[26] = RPMI 5 mM glucose + 10% dialyzed FBS, 0.0211 µM
[27] = RPMI 5 mM glucose + 10% dialyzed FBS, 0.0632 µM
[28] = RPMI 5 mM glucose + 10% dialyzed FBS, 0.19 µM
[29] = RPMI 5 mM glucose + 10% dialyzed FBS, 0.569 µM
[30] = RPMI 5 mM glucose + 10% dialyzed FBS, 1.71 µM
[31] = RPMI 5 mM glucose + 10% dialyzed FBS, 5.12 µM
[32] = RPMI 5 mM glucose + 10% dialyzed FBS, 15.4 µM
[33] = RPMI 5 mM glucose + 10% dialyzed FBS, 46.1 µM

Row | Compound | cell viability [1] [%] | cell viability [2] [%] | cell viability [3] [%] | cell viability [4] [%] | cell viability [5] [%] | cell viability [6] [%] | cell viability [7] [%] | cell viability [8] [%] | cell viability [9] [%] | cell viability [10] [%] | cell viability [11] [%] | cell viability [12] [%] | cell viability [13] [%] | cell viability [14] [%] | cell viability [15] [%] | cell viability [16] [%] | cell viability [17] [%] | cell viability [18] [%] | cell viability [19] [%] | cell viability [20] [%] | cell viability [21] [%] | cell viability [22] [%] | cell viability [23] [%] | cell viability [24] [%] | cell viability [25] [%] | cell viability [26] [%] | cell viability [27] [%] | cell viability [28] [%] | cell viability [29] [%] | cell viability [30] [%] | cell viability [31] [%] | cell viability [32] [%] | cell viability [33] [%]
1 | OC1=C(O)C2=C(\C=C/C(=O)O2)C=C1 | 102 | 111 | 109 | 116 | 113 | 108 | 103 | 109 | 111 | 115 | 128 | 99.7 | 105 | 105 | 116 | 106 | 96.5 | 97.3 | 110 | 97.1 | 107 | 99.4 | 105 | 102 | 108 | 107 | 99.8 | 127 | 111 | 101 | 107 | 110 | 112
2 | CC(=O)Nc1ccc(OC[C@](C)(O)C(=O)Nc2ccc([N+](=O)[O-])c(C(F)(F)F)c2)cc1 | 66.3 | 68.2 | 72.9 | 70.6 | 87.7 | 80.2 | 88.4 | 83.5 | 83.4 | 77.8 | 82.4 | 70.5 | 76.9 | 75.4 | 82.8 | 87 | 83 | 82.8 | 88.2 | 76.2 | 86.9 | 82.2 | 72 | 78.1 | 87.3 | 83.1 | 92.7 | 86.1 | 85.1 | 85.6 | 85.2 | 92.5 | 78
3 | CCCCCCCCCCCCCCCCCCCCCCO | 108 | 134 | 120 | 140 | 125 | 150 | 133 | 148 | 147 | 147 | 129 | – | – | – | – | – | – | – | – | – | – | – | 121 | 107 | 129 | 128 | 132 | 140 | 141 | 140 | 123 | 143 | 145
4 | Oc1ccc2c3c1O[C@H]1c4[nH]c5c(c4C[C@@]4(O)[C@@H](C2)N(CC2CC2)CC[C@]314)C[C@@]1(O)[C@H]2Cc3ccc(O)c4c3[C@@]1(CCN2CC1CC1)[C@H]5O4 | 92.7 | 104 | 114 | 116 | 116 | 136 | 108 | 115 | 129 | 132 | 131 | 99.8 | 122 | 110 | 116 | 128 | 118 | 125 | 120 | 116 | 123 | 134 | 98 | 127 | 112 | 122 | 123 | 126 | 122 | 110 | 108 | 124 | 119
5 | ClC1=C(N\C2=N\CCN2)C3=NSN=C3C=C1 | – | – | – | – | – | – | – | – | – | – | – | 108 | 119 | 120 | 123 | 112 | 118 | 119 | 135 | 117 | 125 | 144 | 107 | 127 | 114 | 132 | 133 | 128 | 140 | 143 | 161 | 153 | 140
6 | Nc1ccccc1NC(=O)c1ccc(CNC(=O)OCc2cccnc2)cc1 | 103 | 127 | 111 | 108 | 118 | 110 | 81.1 | 47 | 22.9 | 12.7 | 3.22 | 103 | 92.5 | 103 | 99 | 108 | 103 | 88.7 | 58.6 | 33.9 | 10.7 | 3.59 | 115 | 107 | 110 | 115 | 123 | 97.3 | 94.2 | 53.9 | 24.7 | 9.54 | 2.99
7 | [NH2][Pt]1([NH2])[O]CC(=O)[O]1 | 96.9 | 109 | 98 | 101 | 96 | 108 | 97.8 | 106 | 85.9 | 91.3 | 88.3 | 94.5 | 83 | 99.1 | 85.2 | 82.4 | 93.8 | 98.7 | 92.9 | 93.8 | 80.5 | 84.3 | 92.7 | 86.9 | 90.7 | 98.1 | 93.2 | 89.1 | 87.8 | 92.5 | 83.9 | 77.8 | 104
8 | NC1(Cc2ccc(Cl)cc2)CCN(c2ncnc3[nH]ccc23)CC1 | 97.7 | 93.7 | 89.9 | 106 | 92.9 | 105 | 116 | 81.9 | 82 | 45.6 | 29.4 | 106 | 102 | 88.3 | 101 | 97.4 | 90.5 | 85.5 | 90.6 | 74.5 | 32.6 | 16.3 | 102 | 92.8 | 94.7 | 90.2 | 102 | 84.9 | 87.8 | 80.9 | 67.3 | 33 | 17.7
9 | CCc1cc(Nc2nccc(-c3c(-c4ccc(OC)c(C(=O)Nc5c(F)cccc5F)c4)nc4ccccn34)n2)c(OC)cc1N1CCC(N2CCN([S+](C)(=O)[O-])CC2)CC1 | 101 | 95.2 | 103 | 104 | 105 | 96.7 | 114 | 120 | 103 | 96 | 43.2 | 101 | 91.5 | 92.7 | 95.3 | 94.6 | 102 | 114 | 106 | 101 | 111 | 44.6 | 84.8 | 90.1 | 94.8 | 101 | 104 | 86 | 102 | 107 | 109 | 98.3 | 65.5
10 | CC/1=C/C(=O)N(O)/C(=C1)C2CCCCC2 | 110 | 117 | 135 | 146 | 143 | 145 | 140 | 136 | 139 | 79 | 39.8 | – | – | – | – | – | – | – | – | – | – | – | – | – | – | – | – | – | – | – | – | – | –
11 | CC(NC1=CC=CC=C1)C\2=C\C(=C/N3C(=O)\C=C(/N=C23)N4CCOCC4)C (centres undefined) | 91.6 | 106 | 115 | 105 | 114 | 117 | 125 | 118 | 108 | 99.6 | 87.6 | 92.7 | 96.3 | 97.7 | 109 | 109 | 102 | 115 | 99.8 | 108 | 105 | 108 | 95.7 | 92.9 | 111 | 110 | 105 | 116 | 109 | 108 | 94.7 | 96.7 | 83
12 | CCC(C)SSc1ncc[nH]1 (centres undefined) | 88 | 85.5 | 94.8 | 103 | 102 | 105 | 90.3 | 87.4 | 104 | 53.6 | 12.6 | 86 | 93.9 | 97.7 | 98.2 | 92.5 | 93.1 | 96.5 | 104 | 104 | 67.5 | 13.6 | 89 | 97.6 | 89.2 | 101 | 94.5 | 94.5 | 94.8 | 105 | 101 | 81.8 | 9.7
13 | C\C1=C\C(=O)OC2=C1C=CC(=C2)O | 119 | 129 | 122 | 133 | 120 | 130 | 120 | 118 | 113 | 110 | 104 | 116 | 122 | 117 | 111 | 119 | 122 | 105 | 120 | 117 | 123 | 106 | 117 | 118 | 120 | 118 | 110 | 108 | 104 | 102 | 109 | 113 | 90.7
14 | Cc1c(CN2CCN(C(=O)[C@H](C)O)CC2)sc2c(N3CCOCC3)nc(-c3cnc(N)nc3)nc12 | 77.8 | 100 | 89.8 | 90.4 | 86.5 | 71.5 | 53.9 | 46.9 | 33.7 | 39.4 | 40.5 | 79.2 | 93.6 | 93.9 | 88.6 | 91.5 | 86.9 | 69.1 | 58.2 | 52.5 | 47.9 | 43.9 | 79.7 | 94 | 81.2 | 74.5 | 69.5 | 73.7 | 59.1 | 45.4 | 47.8 | 44.6 | 39.3
15 | CC/C(=C(/c1ccc(O)cc1)c1ccc(OCCNC)cc1)c1ccccc1 | 99.4 | 98.4 | 98 | 103 | 106 | 130 | 113 | 123 | 90.8 | 75.9 | 47.1 | 102 | 97.2 | 120 | 108 | 114 | 97.9 | 117 | 122 | 108 | 100 | 45.8 | 103 | 99.7 | 102 | 115 | 101 | 106 | 111 | 104 | 96.2 | 84.3 | 55.6
16 | COC1CCC(CC1)N(C(=O)C2CCC(C)CC2)C3=C(SC(=C3)\C4=C\CCCC4)C(O)=O (centres undefined) | 120 | 120 | 109 | 127 | 128 | 130 | 107 | 112 | 106 | 90.9 | 52.6 | 103 | 115 | 104 | 119 | 102 | 104 | 91.5 | 105 | 103 | 90.7 | 96 | 102 | 102 | 120 | 102 | 110 | 99.4 | 97 | 109 | 104 | 93.4 | 84.5
